Source: PubChem BioAssay (NCI)
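1) Cells in 96-well plates. 2) Compound, 48 h, 5 concentrations. 3) Linear interpolation between surrounding doses. 4) Unreached endpoint = highest concentration. GI50: concentration for 50% inhibition of growth. At the TGI there is no net growth.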

Assays:
Assay in all cases: growth of human tumour cells (NCI), 48 h
[1] = system: HOP-62 NSCLC
[2] = system: PC-3 prostate
[3] = system: LOX IMVI melanoma
[4] = system: A498 renal
[5] = system: SW-620 colon
[6] = system: TK-10 renal
[7] = system: HS 578T breast
[8] = system: NCI-H23 lung
[9] = system: MALME-3M melanoma
[10] = system: SK-OV-3 ovarian

Compound	GI50 [1] [µM]	TGI [1] [µM]	GI50 [2] [µM]	TGI [2] [µM]	GI50 [3] [µM]	TGI [3] [µM]	GI50 [4] [µM]	TGI [4] [µM]	GI50 [5] [µM]	TGI [5] [µM]	GI50 [6] [µM]	TGI [6] [µM]	GI50 [7] [µM]	TGI [7] [µM]	GI50 [8] [µM]	TGI [8] [µM]	GI50 [9] [µM]	TGI [9] [µM]	GI50 [10] [µM]	TGI [10] [µM]
O=C(Nc1cccc2ccccc12)c1cc2ccccc2cc1O	3.25	18.1	2	8.48	2.72	12.2	1.03	3.91	2.91	15	2.8	6.72	1.74	6.43	1.9	8.84	0.562	3.9	2.5	7.55
CCOC(=O)c1c2c(n3cccc(F)c13)C(=O)c1ncccc1C2=O	0.0494	5.17	0.449	7.63	0.0932	1.92		21.7	0.151	11.3	0.216	27.2	0.0362	25.6	0.173	3.09	0.541	6.77	0.223	16.3
COc1ccc2cc(C(=O)/C=C/c3ccccc3OC)ccc2c1	7.51	25.6	2.62	23.1	0.863	3.89	6.45	30.7	2.81	> 33.2	2.89	> 40.1	4.18	98.9	5.02	23.3	8.32	67.2	12.7	> 100
COc1ccc2c(c1)c(=O)oc1cc(OC/C(=N\O)c3ccc(F)cc3)ccc12	18.9	41.8	24.1	79	17.8	33	16.7	35.3	26.4	96.3	17.5	52.8	27	75.6	20.4	54.3	16.3	44.2	30.4	> 100
O=C(CN/C=C\C(=O)c1cc(Cl)ccc1Cl)c1ccccc1	34.5	> 100	26	67	19.8	35.1	23.2	90.5	32	> 100	26	73.7	25.7	61.3	19.1	44.2	25.1	78.3	47.1	> 100
COC(C(=O)[C@@H](O)[C@@H](C)O)[C@@H]1Cc2cc3cc(O[C@H]4C[C@@H](O[C@H]5C[C@@H](O)[C@H](O)C(C)O5)[C@H](O)C(C)O4)c(C)c(O)c3c(O)c2C(=O)[C@H]1O[C@H]1C[C@@H](O[C@H]2C[C@@H](O[C@H]3C[C@@H](O)[C@@H](O)C(C)O3)[C@@H](O)C(C)O2)[C@H](O)C(C)O1 (some centres not stated)	0.189	> 32.5	0.914	> 32.5	0.0639	0.471	0.0542	0.278	0.715	> 32.5	0.873	> 32.5	0.126	12.3	0.242	9.05	0.114	2.41	0.422	> 32.5
CCNCCNc1cc(C2CCCC2)c(C#N)c2nc3ccccc3n12	3.72	14.9	6.1	19.3	1.76	3.3	2.67	8.32	2.82	13.2	1.84	5.14	3.23	10.4	7.42	24.3	1.73	3.45	3.26	12.5
O=S(=O)(c1ccccc1)C1CN(Cc2ccccc2)CCN(Cc2ccccc2)C1		> 100		45.3		> 61.5		> 100		> 78.7		> 100		> 100		> 100		> 86.3		> 100
CSc1ccc2c(c1)C(=O)c1c-2n(CCCN=[N+]=[N-])c(=O)c2cc([N+](=O)[O-])ccc12	0.623	29	5.58	> 100	1.22	> 100		> 22.3	1.72	> 100	> 100	> 100	> 61.1	> 100	3.48	> 100		> 38.9	0.861	> 30.5
CC(=O)/C=C/c1ccc(N(C)Cc2ccc(C(C)(C)C)cc2)cc1	194	550	97.2	465	78.2	208	124	251	156	441	348	890	193	568	87.4	550	138	284	217	709
COC1(C)Cc2c(c(C)c(O)c3c2C(=O)C=C(Cl)C3=O)O1 (configuration not stated)		> 100		> 100		> 100		> 100		47.1		45.6		> 100		> 100		19.7		> 100
CCOC(=O)C1=C(N)Oc2cc(OC)ccc2C1c1ccc(F)c(F)c1 (configuration not stated)	2.13	19.4	2.33	15.1	1.36	19	1.29	11.9	0.516	15.9	9.5	21.8	2.48	21.3	2.89	18.4	10.3	24.1	3.66	16.4
N=c1c2c(=O)n3c(nc2nc2sc4ccc(Cl)cc4n12)-c1ccccc1Sc1ccccc1-3	3.64	28.3	2.6	> 100	2.69	20.2	0.371	3.6	3.05	16.1	4.3	47.1	2.2	10.1	1.9	7.49	2.15	9.21	3.7	25.2
